Test results as given in patent US7737251B2, “Long lasting glucagon-like peptide 2 (GLP-2) for the treatment of gastrointestinal diseases and disorders” (ConjuChem Biotechnologies Inc., priority 2001, dated 2010).
Ends that are not written are not given here. * marks the point of attachment. Propanoyl(3-maleimido) = O=C1C=CC(=O)N1CCC(=O)*

How the values were obtained:
Type in all cases: in vivo
CD-1 mice = assay: Dose-response with selected Gly2-GLP-2 analogues (small and large intestine weight); settings: 5, 25 or 50 μg/dose sc twice daily for 10 days, female CD-1 mice
Procedure: Six-week-old female CD-1 mice (20-25 g) were treated twice daily for 10 consecutive days with 5, 25 or 50 μg/dose of the compounds of Examples 5, 7 and 8. The compounds were dissolved in 0.083M sodium phosphate buffer, pH 6.8 and administered via subcutaneous injections in the dorsal-lateral area of the lumbar region. Control animals received 0.25 ml/dose of sodium phosphate buffer.
On day 11, fed mice were anesthetized with Halothane™ and small intestine, large intestine and stomach were collected from each mouse after laparatomy. The tissues were then cleaned and weighed.

normal mice = assay: Intestinotrophic activity in normal mice model (small intestine weight); settings: 5 μg/dose sc twice daily for 10 days, male CD-1 mice; for small intestine weight: vs saline control
Procedure: The intestinotrophic activity of the compounds of Examples 1-8 has been evaluated in a normal mice model. Five-week-old male CD-1 mice (20-25 g) were treated twice daily for 10 consecutive days with 5 μg/dose of each compound dissolved in 0.9% NaCl aqueous solution. The compounds were administered via subcutaneous injections in the dorsal-lateral area of the lumbar region. Control animals received 0.25 ml/dose of 0.9% NaCl.
On day 11, mice were fasted for 4 hours and anesthetized with CO2 Small intestines were removed, cleaned and weighed.

rat albumin = target: T1, rat albumin (Rattus norvegicus, UniProt P02770); assay: Immunoblotting of rat plasma for conjugation to plasma proteins
T1 construct: from tissue; host or cells: rat plasma (Sprague-Dawley rats, in vivo conjugation after iv/sc dosing)
T1 sequence (P02770 25-608): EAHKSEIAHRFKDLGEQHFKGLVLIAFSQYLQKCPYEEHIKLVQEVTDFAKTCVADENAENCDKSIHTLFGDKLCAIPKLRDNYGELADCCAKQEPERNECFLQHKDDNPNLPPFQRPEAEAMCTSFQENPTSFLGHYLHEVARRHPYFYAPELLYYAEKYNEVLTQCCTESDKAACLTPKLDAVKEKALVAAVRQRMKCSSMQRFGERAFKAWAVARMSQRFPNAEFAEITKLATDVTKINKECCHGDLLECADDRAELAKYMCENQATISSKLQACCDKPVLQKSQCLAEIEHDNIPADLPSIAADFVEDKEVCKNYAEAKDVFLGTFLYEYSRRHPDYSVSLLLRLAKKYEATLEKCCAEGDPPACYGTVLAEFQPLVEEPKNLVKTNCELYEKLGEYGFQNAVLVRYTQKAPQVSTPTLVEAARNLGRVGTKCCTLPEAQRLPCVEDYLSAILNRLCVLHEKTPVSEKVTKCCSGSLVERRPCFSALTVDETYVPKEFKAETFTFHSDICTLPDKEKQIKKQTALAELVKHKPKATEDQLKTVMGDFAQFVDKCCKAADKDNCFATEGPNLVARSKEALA
Procedure: Plasma samples obtained from the rat pharmacokinetic study were analyzed by immunoblotting. Plasma proteins were separated under non-reducing conditions using sodium-dodecyl-sulfate polyacrylamide gel electrophoresis (SDS-PAGE) according to Laemmli (1970). Plasma samples were first diluted 1:10 with distilled water and 20 μl was mixed with 10 μl of 3× Laemmli buffer (30 mM TrisCl, 3 mM EDTA, 15% SDS, pH 6.8) and 2 μl of bromophenol blue solution (0.1% bromophenol blue, 50% glycerol). Mixtures were placed in a boiling water bath for 3 min and loaded on gel. Proteins were first concentrated in a 3% stacking gel and then migrated through 8% separating gel using a mini-gel system with 10-well combs (1.5×4.8 mm). Electrophoresis was run under constant current at 15 mA/gel to concentrate proteins in stacking gel and at 20 mA/gel in separating gel for approximately 1.5 h.
Proteins were subsequently transferred onto a nitrocellulose membrane using a semi-dry transfer apparatus, for 1 hour at 100 mA/gel. Transfer efficacy was checked by reversible staining of the membrane with 1% red Ponceau™ solution.
Membranes were saturated overnight at 4° C. with Tris Buffered Saline (TBS) containing 5% low fat milk. […]

[1] = Pharmacokinetic profiles in rats (plasma radioimmunoassay); settings: male, rat, single 500 nmol/kg, Sprague-Dawley rats; for half-life: harmonic mean; for Vd: read-out: Vss; for Tmax: expressed as media; for bioavailability: read-out: F (absolute bioavailability)
Procedure: The pharmacokinetic profiles of the compounds of Examples 5 and 8 were studied in normal rats following a single intravenous or subcutaneous injection. Plasma concentrations were determined by radioimmunoassay with a commercial antibody anti-human GLP-2.
Test articles were dissolved in 0.083M sodium phosphate buffer, pH 6.8 and administered to eight to eleven-week-old male Sprague-Dawley rats by a single intravenous or subcutaneous injection at a dose level of 500 nmol/kg. Serial blood samples (I50-200 μl) were collected into tubes containing EDTA and DPP-IV inhibitor at the following time-points: pre-dose, 5 and 30 min., and 1, 2, 4, 8, 24, 48, 72 and 96 hours post-test agent administration. Whole blood was centrifuged and subsequent plasma samples were recovered and stored at −80° C. until analysis.
The plasma concentrations of the compounds of Examples 5 and 8 were determined by radioimmunoassay using a rabbit polyclonal antibody anti-human GLP-2 (Peninsula Laboratories, RGG7167) and iodinated human GLP-2 as tracer.
Descriptive pharmacokinetic parameters were determined by standard model-independent methods (Gibaldi and Perrier, 1982) based on the analysis of plasma concentration-time data. Pharmacokinetic analyses were performed using macros written for Microsoft Excel 97. The following parameters were calculated: • Cmax is the maximum plasma concentration; • Tmax is the time when Cmax is observed; • T1/2 is the terminal half-life; • AUC(0-inf) is the area under the plasma concentration-time curve from time zero to time infinity; • F is the absolute bioavailability, • CL is the systemic clearance; • MRT is mean residence time; and • Vss is the steady-state volume of distribution.

| conjugation to rat albumin (rat albumin; post-iv administration, anti-GLP-2 immunoblot) | signal on albumin (rat albumin; post-sc administration, anti-GLP-2 immunoblot (not shown)) | AUC(0-inf) ([1]; IV) | Cmax ([1]; IV) | MRT ([1]; IV) | clearance ([1]; IV) | half-life ([1]; IV) | Vd ([1]; IV) | AUC(0-inf) ([1]; SC) | Cmax ([1]; SC) | Tmax ([1]; SC) | half-life ([1]; SC) | bioavailability ([1]; SC) | Molecule | dose-response, large intestine weight (CD-1 mice) | dose-response, small intestine weight (CD-1 mice) | intestinotrophic effects compared to the native GLP-2 peptides of Examples 1 and 3 (normal mice) | small intestine weight (normal mice) |
| --- | --- | --- | --- | --- | --- | --- | --- | --- | --- | --- | --- | --- | --- | --- | --- | --- | --- |
|  |  |  |  |  |  |  |  |  |  |  |  |  | His-Gly-Asp-Gly-Ser-Phe-Ser-Asp-Glu-Met-Asn-Thr-Ile-Leu-Asp-Lys(MPA)-Leu-Ala-Ala-Arg -Asp-Phe-Ile-Asn-Trp-Leu-Ile-Gln-Thr-Lys-Ile-Thr-Asp-CONH2 (HGDGSFSDEMNTILDK(Propanoyl(3-maleimido))LAARDFINWLIQTKITD-NH2; N-terminus assumed; SMILES CC[C@H](C)[C@H](NC(=O)[C@H](Cc1ccccc1)NC(=O)[C@H](CC(=O)O)NC(=O)[C@H](CCCNC(=N)N)NC(=O)[C@H](C)NC(=O)[C@H](C)NC(=O)[C@H](CC(C)C)NC(=O)[C@H](CCCCNC(=O)CCN1C(=O)C=CC1=O)NC(=O)[C@H](CC(=O)O)NC(=O)[C@H](CC(C)C)NC(=O)[C@@H](NC(=O)[C@@H](NC(=O)[C@H](CC(N)=O)NC(=O)[C@H](CCSC)NC(=O)[C@H](CCC(=O)O)NC(=O)[C@H](CC(=O)O)NC(=O)[C@H](CO)NC(=O)[C@H](Cc1ccccc1)NC(=O)[C@H](CO)NC(=O)CNC(=O)[C@H](CC(=O)O)NC(=O)CNC(=O)[C@@H](N)Cc1c[nH]cn1)[C@@H](C)O)[C@@H](C)CC)C(=O)N[C@@H](CC(N)=O)C(=O)N[C@@H](Cc1c[nH]c2ccccc12)C(=O)N[C@@H](CC(C)C)C(=O)N[C@H](C(=O)N[C@@H](CCC(N)=O)C(=O)N[C@H](C(=O)N[C@@H](CCCCN)C(=O)N[C@H](C(=O)N[C@H](C(=O)N[C@@H](CC(=O)O)C(N)=O)[C@@H](C)O)[C@@H](C)CC)[C@@H](C)O)[C@@H](C)CC) [Example 7] | no dose-response | No dose-response | more pronounced intestinotrophic effects | Significant increases |
| conjugates efficiently to rat albumin | weak signal | 89.4 µM·h | 10100 nM | 16.9 h | 0.0942 mL/min/kg | 972 min | 0.0953 L/kg | 13.5 µM·h | 651 nM | 30 min | 1430 min | 15.2% | CC[C@H](C)[C@H](NC(=O)[C@H](Cc1ccccc1)NC(=O)[C@H](CC(=O)O)NC(=O)[C@H](CCCNC(=N)N)NC(=O)[C@H](C)NC(=O)[C@H](C)NC(=O)[C@H](CC(C)C)NC(=O)[C@H](CC(N)=O)NC(=O)[C@H](CC(=O)O)NC(=O)[C@H](CC(C)C)NC(=O)[C@@H](NC(=O)[C@@H](NC(=O)[C@H](CC(N)=O)NC(=O)[C@H](CCSC)NC(=O)[C@H](CCC(=O)O)NC(=O)[C@H](CC(=O)O)NC(=O)[C@H](CO)NC(=O)[C@H](Cc1ccccc1)NC(=O)[C@H](CO)NC(=O)CNC(=O)[C@H](CC(=O)O)NC(=O)CNC(=O)[C@@H](N)Cc1c[nH]cn1)[C@@H](C)O)[C@@H](C)CC)C(=O)N[C@@H](CC(N)=O)C(=O)N[C@@H](Cc1c[nH]c2ccccc12)C(=O)N[C@@H](CC(C)C)C(=O)N[C@H](C(=O)N[C@@H](CCC(N)=O)C(=O)N[C@H](C(=O)N[C@@H](CCCCN)C(=O)N[C@H](C(=O)N[C@H](C(=O)N[C@@H](CC(=O)O)C(=O)N[C@@H](CCCCNC(=O)CCN1C(=O)C=CC1=O)C(N)=O)[C@@H](C)O)[C@@H](C)CC)[C@@H](C)O)[C@@H](C)CC [Example 8] | possible dose-response | possible dose-response | more pronounced intestinotrophic effects | Significant increases |
|  |  |  |  |  |  |  |  |  |  |  |  |  | His-Ala-Asp-Gly-Ser-Phe-Ser-Asp-Glu-Met-Asn-Thr-Ile-Leu-Asp-Asn-Leu-Ala-Ala-Arg-Asp-Phe -Ile-Asn-Trp-Leu-Ile-Gln-Thr-Lys-Ile-Thr-Asp-Lys(MPA)-CONH2 (HADGSFSDEMNTILDNLAARDFINWLIQTKITDK; MPA; C-terminal amide; analog of GLP-2; VARIANT (34)...(34): MPA attached to the Lys residue; AMIDATION (34)...(34)) [Example 3] |  |  |  | Significant increases |
|  |  | 0.626 µM·h | 1560 nM | 0.3 h | 13.9 mL/min/kg | 90 min | 0.25 L/kg | 0.205 µM·h | 159 nM | 30 min | 54 min | 32.8% | CC[C@H](C)[C@H](NC(=O)[C@H](Cc1ccccc1)NC(=O)[C@H](CC(=O)O)NC(=O)[C@H](CCCNC(=N)N)NC(=O)[C@H](C)NC(=O)[C@H](C)NC(=O)[C@H](CC(C)C)NC(=O)[C@H](CC(N)=O)NC(=O)[C@H](CC(=O)O)NC(=O)[C@H](CC(C)C)NC(=O)[C@@H](NC(=O)[C@@H](NC(=O)[C@H](CC(N)=O)NC(=O)[C@H](CCSC)NC(=O)[C@H](CCC(=O)O)NC(=O)[C@H](CC(=O)O)NC(=O)[C@H](CO)NC(=O)[C@H](Cc1ccccc1)NC(=O)[C@H](CO)NC(=O)CNC(=O)[C@H](CC(=O)O)NC(=O)CNC(=O)[C@@H](N)Cc1c[nH]cn1)[C@@H](C)O)[C@@H](C)CC)C(=O)N[C@@H](CC(N)=O)C(=O)N[C@@H](Cc1c[nH]c2ccccc12)C(=O)N[C@@H](CC(C)C)C(=O)N[C@H](C(=O)N[C@@H](CCC(N)=O)C(=O)N[C@H](C(=O)N[C@@H](CCCCN)C(=O)N[C@H](C(=O)N[C@H](C(=O)N[C@@H](CC(=O)O)C(N)=O)[C@@H](C)O)[C@@H](C)CC)[C@@H](C)O)[C@@H](C)CC [Example 5] | no dose-response | No dose-response | more pronounced intestinotrophic effects | Significant increases |
|  |  |  |  |  |  |  |  |  |  |  |  |  | His-Ala-Asp-Gly-Ser-Phe-Ser-Asp-Glu-Met-Asn-Thr-Ile-Leu-Asp-Asn-Leu-Ala-Ala-Arg-Asp-Phe -Ile-Asn-Trp-Leu-Ile-Gln-Thr-Lys-Ile-Thr-Asp-CONH2 (HADGSFSDEMNTILDNLAARDFINWLIQTKITD-NH2) [Example 1] |  |  |  | Significant increases |
